The subject of one series is white mice. The series is described as follows: motility inhibiting effect (orientation reflex, eight-channel Dews apparatus). Conditions: for Therapeutical index (LD50/ED50), motility inhibiting effect: LD50/ED50, Dews apparatus, mice p.o.; for ED50: Mus musculus, 0.5 h, white mice, oral, pre-treatment of 30 minutes, light beam interceptions, read-out: ED50 p.o. (motility inhibiting effect). Format: in vivo. The procedure: The effect of the new compounds exerted on the orientation reflex was tested on white mice in an eight-channel Dews apparatus, according to the method of Borsy et al. (Arch. Int. Pharmacodyn. 124, 1-2 /1960/). The number of light beam interceptions, caused by the movement of the animals, was recorded after a pre-treatment of 30 minutes. The test groups consisted of 3 mice. The ED50 values obtained in the investigation of motility-inhibiting effect, furthermore the therapeutical indices (LD50 /ED50) calculated therefrom are listed in Table 4.

A further series is described as follows: in vivo. Conditions: mouse, mice, oral. As for the experimental part:
The acute toxicity of the new compounds having the general formula (I) was tested on mice. The substances to be tested were administered orally to the animals.

Series [1] has as its system animals treated with tetrabenazine. The series is described as follows: tetrabenazine-antagonizing effect (closed palpebral fissures). Format: in vivo. Conditions: for Therapeutical index (LD50/ED50), tetrabenazine-antagonizing effect: LD50/ED50, p.o.; for ED50: Mus musculus, oral, 30 min before 50 mg/kg tetrabenazine p.o., readings at 30, 60, 90 and 120 min summed. The procedure: The tetrabenzine-antagonizing effect of the new compounds was tested on groups consisting of 10 mice each. The animals belonging to the control group received an oral dosage of 20 ml/kg of 0.9% aqueous sodium chloride solution, whereas the other animals were treated orally with the compound to be tested. 30 minutes after the introduction of the active agent or the vehicle 50 mg/kg of tetrabenazine (3-isobutyl-9,10-[…]-1,2,3,4,6,7-hexahydrobenzo[a]quinolisine-2-one) were administered orally into the animals, and the animals with closed palpebral fissures were counted 30, 60, 90 and 120 minutes after the administration of tetrabenazine. The data obtained in the individual measuring times were added, and the percentage inhibition related to the controls was calculated.

Series [2] has as its system mice. As to the kind of experiment: analgesic effect, writhing test (acetic acid i.p.). Type of series: in vivo. Conditions: for Therapeutical index (LD50/ED50), analgesic effect: LD50/ED50, writhing test, mice p.o.; for ED50: Mus musculus, mice, oral 1 h before 0.4 ml of 0.5% acetic acid i.p., dosage decreasing number of writhings by 50%, read-out: ED50 p.o. (analgesic effect). As for the experimental part: The analgesic effect of the new compounds according to the invention was investigated on mice by the so-called writhing test. […] The animals were treated orally with the compound to be tested one hour before the introduction of acetic acid. The animals belonging to the control group received vehicle only.
In general terms: In writhing tests, fewer writhes than in controls are read as antinociception.

The test system of series [3] is mice. The series is described as follows: potentiation of hexobarbital-induced narcosis (method of Kaergaard et al.). The note with it: for Therapeutical index (LD50/ED50), potentiation of hexobarbital-induced narcosis: LD50/ED50, mice p.o.; for ED50: Mus musculus, mice, oral, then 40 mg/kg hexobarbital i.v., 150% prolongation of sleeping time = positive, read-out: ED50 p.o. (potentiation of hexobarbital-induced narcosis). Format: in vivo. As for the experimental part:
The hexobarbital-induced narcosis potentiating effect of the new compounds was tested by the method of Kaergaard et al. (Arch. Int. Pharmacodyn. 2, 170 /1967/) on groups consisting of 6 mice each. The animals belonging to the control group received an oral dosage of 20 ml/kg of 0.9% aqueous sodium chloride solution, whereas the other animals were treated orally with the compound to be tested. Thereafter 40 mg/kg of hexobarbital (5-/1-cyclohexenyl/-[…]) were administered intravenously into the animals. A 150% prolongation of the sleeping time, related to the average value observed in the controls, was regarded as positive response. The number of animals giving positive response was compared to the total number of the animals treated.

The next series deals with rats. The series is described as follows: antiphlogistic effect, carrageenine-induced paw swelling (method of Winter). Format: in vivo. Conditions: Rattus norvegicus, oral, paw volume before and 3 h after 0.1 ml 1% carrageenine, read-out: Dosage exerting 30% inhibition (antiphlogistic effect). As for the experimental part: The antiphlogistic effect of the new compounds according to the invention was investigated on rats by the method of Winter (J. Pharm. Exp. […] The volume of the treated paw was measured by […] before and 3 hours after challenge. The compounds to be tested were administered orally into the animals.

Molecules are shown by their SMILES. A value given as a limit tells only on which side of the number the result lay.

As usually defined, the ED50 is the midpoint of the dose-response relation. For orientation: LD50 means the dose at which mortality reaches 50%. A low value points to greater toxicity. As for `CC(=O)N1N=C(c2ccccc2)Nc2cnccc21` [Example 17, 3-phenyl-1-acetyl-1,4-dihydropyrido[3,4-e]-as-triazine], in the series on white mice, the “Therapeutical index (LD50/ED50), motility inhibiting effect” value amounted to 46.67 and the 50% effective dose (ED50) was determined as 30 mg/kg. The compound also yielded a 50% lethal dose (LD50) in “in vivo” of 1400 mg/kg. In series [1], the “Therapeutical index (LD50/ED50), tetrabenazine-antagonizing effect” value is reported as 25 and the median effective dose (ED50) came to 56 mg/kg. In the series with mice [2], the “Therapeutical index (LD50/ED50), analgesic effect” value worked out at 60.87 and the 50% effective dose (ED50) worked out at 23 mg/kg. In the series with mice [3], the “Therapeutical index (LD50/ED50), potentiation of hexobarbital-induced narcosis” value is 40 and the ED50 was found to be 35 mg/kg.

The compound `CCC(=O)N1N=C(C)Nc2cnccc21` [Example 11, 3-Methyl-1-propionyl-1,4-dihydropyrido[3,4-e]-as-triazine] showed a median lethal dose (LD50) in the series “in vivo” of 500 mg/kg. Also, the ED30 in the series on rats came to 30 mg/kg. Further, in the series with mice [3], the “Therapeutical index (LD50/ED50), potentiation of hexobarbital-induced narcosis” value was 25 and the 50% effective dose (ED50) is 20 mg/kg.

In “in vivo”, `CC(=O)N1C=NN(C(C)=O)c2ccncc21` [Example 1, 1,4-diacetyl-1,4-dihydropyrido[3,4-e]-as-triazine] gave a median lethal dose (LD50) of 360 mg/kg. For the same compound, the ED30 with rats stood at 25 mg/kg. Moreover, in the series on mice [3], the “Therapeutical index (LD50/ED50), potentiation of hexobarbital-induced narcosis” value was 11.4 and the median effective dose (ED50) was found to be 25 mg/kg.

`CN(C)CCC=C1c2ccccc2CCc2ccccc21` [Amitryptiline, reference compound] returned a 50% effective dose (ED50) in series [1] of 12 mg/kg.

On to `CCC(=O)N1N=C(c2ccccc2)Nc2cnccc21` [Example 12, 3-phenyl-1-propionyl-1,4-dihydropyrido[3,4-e]-as-triazine], for which, in the series with white mice, the “Therapeutical index (LD50/ED50), motility inhibiting effect” value is over 57.4 and the ED50 was found to be 35 mg/kg. In addition, the median lethal dose (LD50) in “in vivo” was over 2000 mg/kg. Also, in the series on mice [2], the “Therapeutical index (LD50/ED50), analgesic effect” value is listed as “above 40” and the ED50 is 50 mg/kg. Further, the ED30 with rats came out at 26 mg/kg. Further, in the series with mice [3], the “Therapeutical index (LD50/ED50), potentiation of hexobarbital-induced narcosis” value came out at 32.3 and the 50% effective dose (ED50) was found to be 62 mg/kg.

Consider `CCCC(=O)N1N=C(c2ccccc2)Nc2cnccc21` [Example 19, 3-phenyl-1-butyryl-1,4-dihydropyrido[3,4-e]-as-triazine], for which, in the series with white mice, the “Therapeutical index (LD50/ED50), motility inhibiting effect” value is recorded as 16.67 and the 50% effective dose (ED50) was 90 mg/kg. In “in vivo”, this compound had an LD50 of 1500 mg/kg. In addition, in series [1], the “Therapeutical index (LD50/ED50), tetrabenazine-antagonizing effect” value stood at 75 and the median effective dose (ED50) was 20 mg/kg. Besides, in the series on mice [2], the “Therapeutical index (LD50/ED50), analgesic effect” value amounted to 20 and the 50% effective dose (ED50) was determined as 75 mg/kg. In addition, the ED30 with rats was 13 mg/kg. Moreover, in the series with mice [3], the “Therapeutical index (LD50/ED50), potentiation of hexobarbital-induced narcosis” value was determined as 10 and the ED50 worked out at 150 mg/kg.

For `CCCC(C)(COC(N)=O)COC(N)=O` [Meprobamate, reference compound], in the series with white mice, the “Therapeutical index (LD50/ED50), motility inhibiting effect” value was found to be 14.1 and the median effective dose (ED50) turned out to be 270 mg/kg. Also, in the series with mice [3], the “Therapeutical index (LD50/ED50), potentiation of hexobarbital-induced narcosis” value is given as 4.1 and the ED50 turned out to be 270 mg/kg.

On to `CCC(=O)N1N=C(c2ccccc2)Nc2cnccc21.Cl` [12 (HCl), 3-phenyl-1-propionyl-1,4-dihydro-pyrido[3,4-e]-as-triazine hydrochloride], for which, in the series on white mice, the “Therapeutical index (LD50/ED50), motility inhibiting effect” value is 40 and the ED50 is 50 mg/kg. The LD50 in “in vivo” was determined as 2000 mg/kg. In series [1], the “Therapeutical index (LD50/ED50), tetrabenazine-antagonizing effect” value amounted to 50 and the median effective dose (ED50) was 40 mg/kg. Further, the ED30 in the series on rats was 30 mg/kg. For the same compound, in the series on mice [3], the “Therapeutical index (LD50/ED50), potentiation of hexobarbital-induced narcosis” value came to 200 and the median effective dose (ED50) amounted to 10 mg/kg.

As to `CCC(=O)N1C=NN(C(=O)CC)c2ccncc21` [Example 18, 1,4-dipropioyl-1,4-dihydropyrido[3,4-e]-as-triazine], the LD50 in “in vivo” is 450 mg/kg. Besides, in the series with mice [2], the “Therapeutical index (LD50/ED50), analgesic effect” value was determined as 75 and the ED50 was determined as 6 mg/kg. Besides, the ED30 with rats worked out at 12 mg/kg.

For `CCCCC1C(=O)N(c2ccccc2)N(c2ccccc2)C1=O` [Phenylbutazone, reference compound], the ED50 in the series with mice [2] worked out at 65 mg/kg. In the series on rats, the ED30 came out at 90 mg/kg.

The values above are taken from patent US4424351A, “Pyrido[3,4-e]-as-triazines” (Egyt Gyogyszervegyeszeti Gyar, priority 1979, dated 1984).
